ChEMBL document CHEMBL5360560, “Anti-Vibrio potential of natural products from marine microorganisms” (Eur J Med Chem, 2023)
≈ marks a conversion by molar mass, not a printed value. One block for each compound: values may come before it.

Assays:
Vibrio parahaemolyticus [1] = assay: Antimicrobial activity against Vibrio parahaemolyticus assessed as bacterial growth inhibition by broth dilution assay; type: functional
Vibrio anguillarum [2] = assay: Antimicrobial activity against Vibrio anguillarum assessed as bacterial growth inhibition by broth dilution assay; type: functional
Vibrio alginolyticus [3] = assay: Antimicrobial activity against Vibrio alginolyticus assessed as bacterial growth inhibition by broth dilution assay; type: functional
Vibrio harveyi [4] = assay: Antimicrobial activity against Vibrio harveyi BB120 assessed as bacterial growth inhibition by bioluminescence based Quorum-Sensing assay; type: functional, organism-based
Vibrio harveyi [5] = assay: Antimicrobial activity against Vibrio harveyi QDIO-7 assessed as bacterial growth inhibition by microplate reader assay; type: functional
Vibrio parahaemolyticus [6] = assay: Antimicrobial activity against Vibrio parahaemolyticus assessed as bacterial growth inhibition; type: functional
Vibrio anguillarum [7] = assay: Antimicrobial activity against Vibrio anguillarum assessed as zone of inhibition per disc at 100 ug measured after 24 hrs by disc diffusion assay; type: functional; settings: read-out: IZ
Vibrio anguillarum [8] = assay: Antibacterial activity against Vibrio anguillarum assessed as bacterial growth inhibition; type: functional
Vibrio harveyi [9] = assay: Antibacterial activity against Vibrio harveyi assessed as bacterial growth inhibition; type: functional
Vibrio anguillarum [10] = assay: Antimicrobial activity against Vibrio anguillarum assessed as bacterial growth inhibition; type: functional
Vibrio harveyi [11] = assay: Antimicrobial activity against Vibrio harveyi assessed as bacterial growth inhibition; type: functional
Vibrio harveyi [12] = assay: Antimicrobial activity against Vibrio harveyi assessed as bacterial growth inhibition by microplate reader assay; type: functional
Vibrio anguillarum [13] = assay: Antimicrobial activity against Vibrio anguillarum assessed as bacterial growth inhibition by microplate reader assay; type: functional
Vibrio alginolyticus [14] = assay: Antimicrobial activity against Vibrio alginolyticus assessed as zone of inhibition; type: functional
Vibrio parahaemolyticus [15] = assay: Antimicrobial activity against Vibrio parahaemolyticus assessed as zone of inhibition; type: functional
Vibrio vulnificus = assay: Antimicrobial activity against Vibrio vulnificus MCCC E1758 assessed as bacterial growth inhibition by resazurin dye based assay; type: functional
Vibrio anguillarum [16] = assay: Antimicrobial activity against Vibrio anguillarum QDIO-6 assessed as bacterial growth inhibition by microtiter plate assay; type: functional
Vibrio parahaemolyticus [17] = assay: Antimicrobial activity against Vibrio parahaemolyticus ATCC 17802 assessed as bacterial growth inhibition by microplate reader assay; type: functional

- MIC (Vibrio anguillarum [2]): 1.56 µM
- MIC (Vibrio alginolyticus [3]): 1.56 µM
SMILES: C=C(C)[C@H]1COc2c(C)cc3oc4c(C[C@H](OC(C)=O)C(C)(C)O)ccc(O)c4c(=O)c3c2[C@@H]1O
- MIC (Vibrio parahaemolyticus [1]): 1.56 µM

SMILES: O=C(/C=C/CCl)O[C@@H]1COC(=O)C1
- IC50 (Vibrio harveyi [4]): 5.6 µM

- MIC (Vibrio harveyi [5]): 4 µg/mL
SMILES: O=C1CC[C@@H](c2ccc(O)c3c2C(=O)CCC3=O)c2cccc(O)c21

SMILES: COc1cc(O)c2c(c1)C(=O)C1=C(C2=O)[C@H](O)[C@@H](O)[C@@](C)(O)C1
- MIC (Vibrio parahaemolyticus [6]): 25 µM

SMILES: O=C1N[C@H](Cc2ccccc2)C(=O)N2CCC[C@@H]12
- zone of inhibition at 100 µg/disc (Vibrio anguillarum [7]): 24 mm

SMILES: O=C1N[C@@H](Cc2ccccc2)C(=O)N2CCC[C@@H]12
- zone of inhibition at 100 µg/disc (Vibrio anguillarum [7]): 25 mm

- MIC (Vibrio anguillarum [2]): 3.1 µM
- MIC (Vibrio alginolyticus [3]): 3.1 µM
SMILES: CC(C)(O)[C@H](O)CC[C@]1(C)[C@@H](O)CC[C@@]2(C)[C@H]1CC[C@H]1Cc3c([nH]c4ccccc34)[C@@]12C
- MIC (Vibrio parahaemolyticus [1]): 6.3 µM

- MIC (Vibrio anguillarum [8]): 0.5 µg/mL
- MIC (Vibrio harveyi [9]): 32 µg/mL (≈ 158 µM)
SMILES: C[C@H](O)/C=C1/C(=O)O[C@H]([C@@H](C)O)[C@@H]1O

- MIC (Vibrio anguillarum [2]): 1.56 µM
- MIC (Vibrio alginolyticus [3]): 1.56 µM
SMILES: C=C(C)[C@H]1COc2c(C)cc3oc4c([C@@H](OC)[C@@H](O)C(C)(C)O)ccc(O)c4c(=O)c3c2[C@@H]1OC(C)=O
- MIC (Vibrio parahaemolyticus [1]): 1.56 µM

- MIC (Vibrio anguillarum [10]): 65 µM
- MIC (Vibrio harveyi [11]): 65 µg/mL (≈ 216 µM)
SMILES: C/C=C/CC/C=C/c1c(O)cc(CC=C(C)C)c(O)c1C=O

SMILES: CCCCCc1cc(O)c2ccccc2n1
- MIC (Vibrio harveyi [9]): 4 µg/mL (≈ 18.6 µM)

- MIC (Vibrio harveyi [12]): 4 µg/mL
- MIC (Vibrio anguillarum [13]): 4 µg/mL
SMILES: C[C@H]1CC[C@H]2[C@@H](C=C[C@H](C)[C@]2(C)C(=O)CCO)[C@@H]1O

SMILES: CC(C)C[C@H]1NC(=O)[C@H]2C[C@H](O)CN2C1=O
- inhibition zone (IZ) (Vibrio alginolyticus [14]): 22 mm
- inhibition zone (IZ) (Vibrio parahaemolyticus [15]): 14 mm

SMILES: C[C@@H](O)CCCCC[C@H](C)[C@@H]1C=CC(=O)O1
- MIC (Vibrio parahaemolyticus [1]): 25 µM

- MIC (Vibrio vulnificus): 15.6 µg/mL (≈ 61.8 µM)
SMILES: CCOC(=O)Cc1cc(O)cc(O)c1C(=O)CC

SMILES: O=C1N[C@H](Cc2ccccc2)C(=O)N2C[C@@H](O)C[C@@H]12
- inhibition zone (IZ) (Vibrio alginolyticus [14]): 20 mm
- inhibition zone (IZ) (Vibrio parahaemolyticus [15]): 12 mm

SMILES: CC[C@@H](C)[C@H](/C=C/C(=C/CC[C@@H](C)C[C@H](C)[C@H]1C[C@@H](O)[C@H](C)CC/C=C/[C@H](C)C/C=C(\C)[C@H](O)CCC[C@@H](O)[C@H](C)/C=C/C(=O)O1)CO)OC(C)=O
- MIC (Vibrio parahaemolyticus [6]): 1.56 µg/mL

SMILES: CC[C@@H](C)[C@@H](O)/C=C/C(C)=C/CC[C@@H](C)C[C@H](C)[C@H]1C[C@@H](O)[C@H](C)CC/C=C/[C@H](C)C/C=C(\C)[C@H](O)CCC[C@@H](O)[C@H](C)/C=C/C(=O)O1
- MIC (Vibrio parahaemolyticus [6]): 1.56 µg/mL

- MIC (Vibrio anguillarum [10]): 65 µM
- MIC (Vibrio harveyi [11]): 65 µg/mL (≈ 342 µM)
SMILES: CC(C)=CCc1ccc(O)c(C=O)c1

SMILES: CC(C)C[C@@H]1NC(=O)[C@H]2C[C@H](O)CN2C1=O
- inhibition zone (IZ) (Vibrio alginolyticus [14]): 20 mm
- inhibition zone (IZ) (Vibrio parahaemolyticus [15]): 12 mm

SMILES: CC[C@H]1/C=C/CC[C@@H](C)[C@H](O)C[C@H]([C@@H](CO)C[C@H](C)CC[C@H](O)[C@H](C)/C=C/[C@H](O)C(C)C)OC(=O)/C=C/[C@](C)(O)[C@H](O)CCC[C@@H](O)[C@H](C)CC1
- MIC (Vibrio parahaemolyticus [6]): 1.56 µg/mL

SMILES: CO[C@@H]1CC(=O)/C=C/C[C@@H](C)OC(=O)C[C@H](O)C1
- MIC (Vibrio parahaemolyticus [1]): 25 µM

- MIC (Vibrio anguillarum [8]): 10 µM
SMILES: CC(C)CCC[C@@](C)(O)c1ccc(C(=O)O)cc1O
- MIC (Vibrio parahaemolyticus [6]): 5 µM

SMILES: C[C@H]1[C@H]([C@@]2(C)CCC([C@](C)(O)CO)O2)CC[C@@]1(C)O (stereo partly specified)
- inhibition zone (IZ) (Vibrio parahaemolyticus [15]): 6.2 mm

SMILES: COc1ccc(O)c(-c2cc(OC)ccc2O)c1
- MIC (Vibrio parahaemolyticus [1]): 10 µg/mL

- MIC (Vibrio anguillarum [16]): 2 µg/mL
SMILES: C[C@@H]1CCCCC2=C(O)C(=O)C[C@H]2C(=O)O1

- MIC (Vibrio vulnificus): 15.6 µg/mL (≈ 55.7 µM)
SMILES: CCOC(=O)Cc1cc(OC)cc(OC)c1C(=O)CC

SMILES: O=C1c2cc(O)cc(O)c2C(=O)c2c1cc(O)c(C(CO)CCO)c2O (stereo unspecified)
- MIC (Vibrio parahaemolyticus [17]): 12 µg/mL

SMILES: CC[C@@H](C)[C@@H](O)/C=C/C=C/CC[C@@H](C)C[C@H](C)[C@H]1C[C@@H](O)[C@H](C)CC/C=C/[C@H](C)C/C=C(\C)[C@H](O)CCC[C@@H](OC)[C@H](C)/C=C/C(=O)O1
- MIC (Vibrio parahaemolyticus [6]): 1.56 µg/mL

- MIC (Vibrio anguillarum [10]): 12.5 µg/mL
SMILES: CCC[C@@H]1C(C)=C[C@@H]2C[C@H](C)CC[C@H]2[C@]1(C)C(=O)C1=C(O)C(=O)NC1=O

- MIC (Vibrio anguillarum [8]): 0.5 µg/mL
- MIC (Vibrio harveyi [9]): 32 µg/mL (≈ 145 µM)
SMILES: CC(O)C(Cl)C1=C[C@H]([C@H](C)O)OC1=O (stereo partly specified)

- MIC (Vibrio anguillarum [2]): 25 µg/mL
- MIC (Vibrio alginolyticus [3]): 25 µg/mL
SMILES: C/C(=C\[C@H]1OC(=O)[C@H](C)[C@@H]1C)[C@H]1CCC2=C3C=CC4=CC(=O)CC[C@]4(C)[C@H]3CC[C@@]21C
- MIC (Vibrio parahaemolyticus [1]): 25 µg/mL

- MIC (Vibrio harveyi [12]): 4 µg/mL
- MIC (Vibrio anguillarum [13]): 4 µg/mL
SMILES: C[C@H]1C[C@H](O)[C@H]2[C@@H](C=C[C@@](C)(O)[C@]2(C)C(=O)CCO)C1

SMILES: COC(=O)C[C@H](O)COC(=O)/C=C/CCl
- IC50 (Vibrio harveyi [4]): 14.6 µM

- MIC (Vibrio anguillarum [2]): 1.56 µM
- MIC (Vibrio alginolyticus [3]): 1.56 µM
SMILES: C=C(C)[C@H]1COc2c(C)cc3oc4c([C@@H](OC)[C@@H](O)C(=C)C)ccc(O)c4c(=O)c3c2[C@@H]1OC(C)=O
- MIC (Vibrio parahaemolyticus [1]): 1.56 µM

SMILES: O=C1c2cccc(O)c2C(=O)c2c1cc(O)c(C(CO)CCO)c2O (stereo unspecified)
- MIC (Vibrio parahaemolyticus [17]): 24 µg/mL
